Our source for the GI50 and TGI values is PubChem BioAssay (NCI).

Holding throughout (assay): growth of human tumour cells (NCI), 48 h
Assay [1] deals with M14 melanoma.
Assay [2] has as its system HCC-2998 colon.
The subject of assay [3] is OVCAR-5 ovarian.
For assay [4], the system named is RXF 393 renal.
The test system of assay [5] is SNB-19 CNS.
Assay [6] has as its system SF-268 CNS.
The subject of assay [7] is HCT-15 colon.
Assay [8] relates to UACC-257 melanoma.

Where “and” joins values, the source holds several entries; their conditions need not be identical. Equal values may be shown once.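 Assay format: 96-well plates, 48-hour exposure. The concentration for 50% growth inhibition is given as GI50. Definition used: TGI = concentration required for complete inhibition of growth.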

Consider `O=S(=O)(NCCCNc1cc(-c2cn(-c3ccccc3)nc2-c2cccc(O)c2)ccn1)c1ccc(Cl)cc1`, for which the GI50 in assay [1] is 1.6 µM; in assay [2], 1.82 µM; in assay [3] it was 2.04 µM; in assay [4] it was 0.846 µM; in assay [5] it was 2.68 µM; in assay [6], 1.55 µM. Besides, in assay [7], the GI50 was 1.34 µM. Further, the TGI is 3.2 µM in assay [1]; 3.46 µM in assay [2]; 5.64 µM in assay [3]; 2.8 µM in assay [4]; 8.37 µM in assay [5]; 5.18 µM in assay [6]. For the same compound, in assay [7], the TGI was 3.45 µM.

As for `O=C(/C=C/c1cccnc1)c1ccccc1O`, the GI50 in assay [1] is 16.9 µM; in assay [2] it was 16.2 µM; in assay [3] it was 19 µM; in assay [4], 13.8 µM; in assay [5] it was 20.3 µM; in assay [6], 26.9 µM. Besides, the GI50 in assay [7] is 15.6 µM; in assay [8], 25.4 µM. For the same compound, the TGI in assay [1] came to 34.1 µM; in assay [2], 30 µM; in assay [3], 46.7 µM; in assay [4], 27.3 µM; in assay [5], 62.5 µM; in assay [6] it was 97.6 µM. Moreover, the figures for the TGI in assay [7] and in assay [8] were 41 µM and 60.3 µM, respectively.

Turning to `S=C(N/N=C(/c1ccccc1)c1ccccn1)Nc1cccc(Cl)c1`, the GI50 is 0.0154 µM in assay [1]; 2 µM in assay [2]; 0.05 µM in assay [3]; 0.786 µM in assay [5]; 2.33 µM in assay [6]; 0.142 µM in assay [7]. Moreover, in assay [8], the GI50 is 0.00172 µM. For the same compound, the TGI in assay [1] is 2.24 µM and 1.89 µM; in assay [2], 5.04 µM and 5.92 µM; in assay [3], 4.47 µM; in assay [4], 2.51 µM and 3.86 µM; in assay [5] it was 15.3 µM; in assay [6] it was 16.6 µM. For the same compound, the TGI in assay [7] is 5.06 µM.

`Cc1ccccc1/C=C1\CN(C(=O)OC(C)(C)C)C/C(=C\c2ccccc2C)C1=O`: the GI50 in assay [1] is 2.97 µM; in assay [2] it was 1.94 µM; in assay [3] it was 2.16 µM; in assay [4], 1.66 µM; in assay [5], 1.81 µM; in assay [6], 2.95 µM. Moreover, the GI50 is 2.1 µM in assay [7] and 3.12 µM in assay [8]. In addition, the TGI in assay [1] is 13.5 µM; in assay [2], 3.78 µM; in assay [3], 4.86 µM; in assay [4], 3.21 µM; in assay [5], 4.38 µM; in assay [6], 10.6 µM. Besides, the TGI came out at 5.76 µM in assay [7] and 9.92 µM in assay [8].

Regarding `N=c1ccn2c(n1)O[C@@H]1[C@@H](O)[C@H](CO)O[C@@H]12`, the GI50 is 0.428 µM in assay [1]; 21.2 µM in assay [2]; 49.3 µM in assay [3]; 18.1 µM in assay [4]; 1.44 µM in assay [5]; 4.8 µM in assay [6]. Besides, the GI50 was 11.4 µM in assay [7] and 35 µM in assay [8]. Further, the TGI is 3.39 µM in assay [1]; more than 100 µM in assay [2]; more than 100 µM in assay [3]; more than 100 µM in assay [4]; more than 100 µM in assay [5]; more than 100 µM in assay [6]. The TGI in assay [7] and in assay [8] was more than 100 µM each time.

Consider `O=C(CCl)Nc1ccc2c(c1)C(=O)c1ccc(NC(=O)CCl)cc1C2=O`, for which the GI50 is 0.236 µM in assay [1]; 1.77 µM in assay [2]; 0.371 µM in assay [3]; 0.288 µM in assay [4]; 0.547 µM in assay [5]; 0.386 µM in assay [6]. Moreover, the GI50 in assay [7] is 0.183 µM; in assay [8], 1.8 µM. Besides, the TGI in assay [1] stood at 0.781 µM; in assay [2], 3.79 µM; in assay [3], 1.63 µM; in assay [4], 0.928 µM; in assay [5], 2.98 µM; in assay [6], 1.92 µM. The TGI in assay [7] is 0.469 µM; in assay [8], 4.87 µM.

Consider `O=C1c2cccnc2C(=O)c2c1c(C(=O)OCCN1CCOCC1)c1ccccn21`, for which the GI50 in assay [1] is less than 0.01 µM; in assay [2], 0.252 µM; in assay [3] it was 0.276 µM; in assay [4] it was less than 0.0187 µM; in assay [5], less than 0.01 µM; in assay [6], less than 0.0136 µM. Besides, in assay [8], the GI50 was 0.0354 µM. Also, the TGI in assay [1] is 0.116 µM; in assay [2], 5.4 µM; in assay [3], 1.65 µM; in assay [4], 2.91 µM; in assay [5] it was 3.15 µM; in assay [6], 16.2 µM. In assay [8], this compound registered a TGI of 0.592 µM.

Take `CCN(CC)CC(O)C1CCC(c2ccccc2)CC1` (stereo not given): the TGI in assay [1] is 80.4 µM; in assay [2], 11.5 µM; in assay [3] it was 88.9 µM; in assay [4], 45.1 µM; in assay [5], more than 100 µM; in assay [6], more than 100 µM. Also, the TGI in assay [7] amounted to 42.3 µM; in assay [8], 50.5 µM.

For `CCN1CCN(C(=O)[C@]23CCC(C)(C)C[C@@H]2C2=CC[C@@H]4[C@@]5(C)C/C(=C/c6cccnc6)C(=O)C(C)(C)[C@@H]5CC[C@@]4(C)[C@]2(C)CC3)CC1`, the GI50 was 1.6 µM in assay [1]; 1.58 µM in assay [2]; 1.56 µM in assay [3]; 1.42 µM in assay [4]; 1.68 µM in assay [5]; 1.59 µM in assay [6]. For the same compound, the GI50 is 1.08 µM in assay [7] and 1.62 µM in assay [8]. Besides, the TGI in assay [1] amounted to 3.15 µM; in assay [2] it was 3.12 µM; in assay [3], 3.35 µM; in assay [4], 2.77 µM; in assay [5], 3.46 µM; in assay [6] it was 4.79 µM. Also, the TGI in assay [7] worked out at 2.71 µM; in assay [8] it was 4.29 µM.
